Data as given in US9527867B2, “Antibacterial biaromatic derivatives” (Actelion Pharmaceuticals Ltd., priority 2013, dated 2016).
Values after ≈ are worked out from the molar mass of the structure shown.

Columns and labels:
Experiment in all cases: Bacterial growth minimal inhibitory concentration (broth microdilution, CLSI M7-A7)
Type in all cases: cell-based
[1] = tested on: Acinetobacter baumannii T6474; conditions: multiply-resistant strain (in particular quinolone-resistant); for MIC: Acinetobacter baumannii, T6474, cation-adjusted Mueller-Hinton Broth; for MIC for A. baumannii T6474: cation-adjusted Mueller-Hinton Broth
Experimental: (§1) Minimal Inhibitory Concentrations (MICs; mg/L) were determined in cation-adjusted Mueller-Hinton Broth by a microdilution method following the description given in “Methods for Dilution Antimicrobial Susceptibility Tests for Bacteria that Grow Aerobically”, Approved standard, 7th ed., Clinical and Laboratory Standards Institute (CLSI) Document M7-A7, Wayne, Pa., USA (2006).
(§2) All Example compounds were tested against several Gram positive and Gram negative bacteria. […] Staphylococcus aureus A798, Enterococcus faecium A949 and Acinetobacter baumannii T6474 are multiply-resistant strains (in particular quinolone-resistant), while Moraxella catarrhalis A894 is a quinolone-sensitive strain and Staphylococcus aureus ATCC29213 is a methicillin-sensitive and quinolone-sensitive strain.

[2] = tested on: Enterococcus faecium A949; conditions: multiply-resistant strain (in particular quinolone-resistant); for MIC: Enterococcus faecium, A949, cation-adjusted Mueller-Hinton Broth, read-out: MIC for E. faecium A949; for MIC for E. faecium A949: cation-adjusted Mueller-Hinton Broth
Experimental: as §1, §2

[3] = tested on: Moraxella catarrhalis A894; conditions: quinolone-sensitive strain; for MIC: Moraxella catarrhalis, A894, cation-adjusted Mueller-Hinton Broth; for MIC for M. catarrhalis A894: cation-adjusted Mueller-Hinton Broth
Experimental: as §1, §2

[4] = tested on: Staphylococcus aureus A798; conditions: multiply-resistant strain (in particular quinolone-resistant); for MIC: Staphylococcus aureus, A798, cation-adjusted Mueller-Hinton Broth, read-out: MIC for S. aureus A798; for MIC for S. aureus A798: cation-adjusted Mueller-Hinton Broth
Experimental: as §1, §2

[5] = tested on: Staphylococcus aureus ATCC29213; conditions: methicillin-sensitive and quinolone-sensitive strain; for MIC: Staphylococcus aureus, ATCC29213, cation-adjusted Mueller-Hinton Broth, read-out: MIC for S. aureus ATCC29213; for MIC for S. aureus ATCC29213: cation-adjusted Mueller-Hinton Broth
Experimental: as §1, §2

Compound | MIC [1] [µg/mL] | MIC [2] [µg/mL] | MIC [3] [µg/mL] | MIC [4] [µg/mL] | MIC [5] [µg/mL] | MIC for A. baumannii T6474 [1] [µg/mL] | MIC for E. faecium A949 [2] [µg/mL] | MIC for M. catarrhalis A894 [3] | MIC for S. aureus A798 [4] [µg/mL] | MIC for S. aureus ATCC29213 [5] [µg/mL]
COc1cnnc(-c2cccc(CNCC[C@H]3CN(c4ccc5c(n4)NC(=O)CO5)C(=O)O3)c2)c1 [Example 44, 6-((S)-5-{2-[3-(5-methoxy-pyridazin-3-yl)-benzylamino]-ethyl}-2-oxo-oxazolidin-3-yl)-4H-pyrido[3,2-b][1,4]oxazin-3-one] | 0.25 (≈ 0.525 µM) | 8 (≈ 16.8 µM) | ≤ 0.016 | 0.125 (≈ 0.262 µM) | 0.25 (≈ 0.525 µM) | – | – | – | – | –
COc1cccc(-c2cccc(CNCCc3nn(-c4ccc5c(n4)NC(=O)CO5)c(=O)o3)c2)c1 [Example 107, 6-(5-{2-[(3′-methoxy-biphenyl-3-ylmethyl)-amino]-ethyl}-2-oxo-[1,3,4]oxadiazol-3-yl)-4H-pyrido[3,2-b][1,4]oxazin-3-one] | 2 (≈ 4.22 µM) | 8 (≈ 16.9 µM) | 0.063 (≈ 0.133 µM) | 8 (≈ 16.9 µM) | 4 (≈ 8.45 µM) | – | – | – | – | –
N#Cc1cccc(-c2cc(CNCCc3cn(-c4ccc5c(n4)NC(=O)CO5)c(=O)o3)ccn2)c1 [Example 49, 3-[4-({2-[2-oxo-3-(3-oxo-3,4-dihydro-2H-pyrido[3,2-b][1,4]oxazin-6-yl)-2,3-dihydro-oxazol-5-yl]-ethylamino}-methyl)-pyridin-2-yl]-benzonitrile] | 0.5 (≈ 1.07 µM) | 8 (≈ 17.1 µM) | 0.031 (≈ 0.0662 µM) | 2 (≈ 4.27 µM) | 1 (≈ 2.13 µM) | – | – | – | – | –
COc1cccc(-c2cccc(CNCC[C@@H]3CN(c4ccc5c(c4)NC(=O)CS5)C(=O)O3)c2)c1 [Example 1, 6-((R)-5-{2-[(3′-methoxy-biphenyl-3-ylmethyl)-amino]-ethyl}-2-oxo-oxazolidin-3-yl)-4H-benzo[1,4]thiazin-3-one] | 0.5 (≈ 1.02 µM) | 2 (≈ 4.08 µM) | 0.031 (≈ 0.0633 µM) | 0.25 (≈ 0.511 µM) | 0.25 (≈ 0.511 µM) | – | – | – | – | –
COc1cnnc(-c2cncc(CNCC[C@H]3CN(c4ccc5c(n4)NC(=O)CO5)C(=O)O3)c2)c1 [Example 110, (S)-6-(5-(2-(((5-(5-methoxypyridazin-3-yl)pyridin-3-yl)methyl)amino)ethyl)-2-oxooxazolidin-3-yl)-2H-pyrido[3,2-b][1,4]oxazin-3(4H)-one] | 2 (≈ 4.19 µM) | > 8 | 0.125 (≈ 0.262 µM) | 4 (≈ 8.38 µM) | 4 (≈ 8.38 µM) | – | – | – | – | –
COc1cccc(-c2cccc(CNCC[C@@H]3CN(c4ccc5c(c4)NC(=O)CS5)C(=O)O3)n2)n1 [Example 22, 6-((R)-5-{2-[(6′-methoxy-[2,2]bipyridinyl-6-ylmethyl)-amino]-ethyl}-2-oxo-oxazolidin-3-yl)-4H-benzo[1,4]thiazin-3-one] | 1 (≈ 2.03 µM) | 2 (≈ 4.07 µM) | 0.063 (≈ 0.128 µM) | 0.5 (≈ 1.02 µM) | 0.25 (≈ 0.509 µM) | – | – | – | – | –
COc1ccc(C#N)c(-c2cccc(CNCC[C@H]3CN(c4ccc5c(n4)NC(=O)CO5)C(=O)O3)c2)c1 [Example 42, 5-methoxy-3′-({2-[(S)-2-oxo-3-(3-oxo-3,4-dihydro-2H-pyrido[3,2-b][1,4]oxazin-6-yl)-oxazolidin-5-yl]-ethylamino}-methyl)-biphenyl-2-carbonitrile] | 0.5 (≈ 1 µM) | 1 (≈ 2 µM) | ≤ 0.016 | 0.125 (≈ 0.25 µM) | 0.063 (≈ 0.126 µM) | – | – | – | – | –
COc1cccc(-c2cc(CNCC[C@@H]3CN(c4ccc5c(c4)NC(=O)CS5)C(=O)O3)ccc2F)c1 [Example 11, 6-((R)-5-{2-[(6-fluoro-3′-methoxy-biphenyl-3-ylmethyl)-amino]-ethyl}-2-oxo-oxazolidin-3-yl)-4H-benzo[1,4]thiazin-3-one] | 2 (≈ 3.94 µM) | 8 (≈ 15.8 µM) | 0.125 (≈ 0.246 µM) | 1 (≈ 1.97 µM) | 1 (≈ 1.97 µM) | – | – | – | – | –
COc1cccc(-c2cccc(CNCC[C@H]3CN(c4ccc5c(n4)NC(=O)CO5)C(=O)O3)c2)c1 [Example 4, 6-((S)-5-{2-[(3′-methoxy-biphenyl-3-ylmethyl)-amino]-ethyl}-2-oxo-oxazolidin-3-yl)-4H-pyrido[3,2-b][1,4]oxazin-3-one] | 0.5 (≈ 1.05 µM) | 4 (≈ 8.43 µM) | 0.031 (≈ 0.0653 µM) | 0.25 (≈ 0.527 µM) | 0.25 (≈ 0.527 µM) | – | – | – | – | –
N#Cc1cccc(-c2cccc(CNCC[C@H]3CN(c4ccc5c(n4)NC(=O)CS5)C(=O)O3)c2)c1 [Example 100, 3′-({2-[(S)-2-oxo-3-(3-oxo-3,4-dihydro-2H-pyrido[3,2-b][1,4]thiazin-6-yl)-oxazolidin-5-yl]-ethylamino}-methyl)-biphenyl-3-carbonitrile] | 0.125 (≈ 0.257 µM) | 0.5 (≈ 1.03 µM) | ≤ 0.016 | ≤ 0.016 | ≤ 0.016 | – | – | – | – | –
COc1cccc(-c2cccc(CNCC[C@@H]3CN(c4ccc5c(c4)NC(=O)CS5)C(=O)O3)n2)c1 [Example 20, 6-[(R)-5-(2-{[6-(3-methoxy-phenyl)-pyridin-2-ylmethyl]-amino}-ethyl)-2-oxo-oxazolidin-3-yl]-4H-benzo[1,4]thiazin-3-one] | 0.5 (≈ 1.02 µM) | 1 (≈ 2.04 µM) | 0.063 (≈ 0.128 µM) | 0.25 (≈ 0.51 µM) | 0.125 (≈ 0.255 µM) | – | – | – | – | –
N#Cc1cnc(O)c(-c2cccc(CNCC[C@@H]3CN(c4ccc5c(c4)NC(=O)CS5)C(=O)O3)c2)c1 [Example 19, 6-hydroxy-5-[3-({2-[(R)-2-oxo-3-(3-oxo-3,4-dihydro-2H-benzo[1,4]thiazin-6-yl)-oxazolidin-5-yl]-ethylamino}-methyl)-phenyl]-nicotinonitrile] | 1 (≈ 1.99 µM) | > 8 | 0.125 (≈ 0.249 µM) | 1 (≈ 1.99 µM) | 1 (≈ 1.99 µM) | – | – | – | – | –
COc1cccc(-c2cccc(CNCC[C@H]3CN(c4ccc5c(c4)NC(=O)CO5)C(=O)O3)c2O)n1 [Example 90, 6-((S)-5-{2-[2-hydroxy-3-(6-methoxy-pyridin-2-yl)-benzylamino]-ethyl}-2-oxo-oxazolidin-3-yl)-4H-benzo[1,4]oxazin-3-one] | 0.5 (≈ 1.02 µM) | 2 (≈ 4.08 µM) | ≤ 0.016 | 0.031 (≈ 0.0632 µM) | 0.063 (≈ 0.128 µM) | – | – | – | – | –
O=C1COc2ccc(N3C[C@H](CCNCc4cccc(-c5cccc(OC[C@@H]6C[C@@H](O)[C@@H](O)C6)n5)c4)OC3=O)nc2N1 (racemic) [Example 69, 6-[(S)-5-(2-{3-[6-((1rs,3R,4S)-3,4-dihydroxy-cyclopentylmethoxy)-pyridin-2-yl]-benzylamino}-ethyl)-2-oxo-oxazolidin-3-yl]-4H-pyrido[3,2-b][1,4]oxazin-3-one] | – | – | – | – | – | 1 | 8 | 0.063 µg/mL | 0.25 | 1
O=C1COc2ccc(N3C[C@H](CCNCc4cccc(-c5cccc(O)c5)c4)OC3=O)nc2N1 [Example 63, 6-((S)-5-{2-[(3′-hydroxy-biphenyl-3-ylmethyl)-amino]-ethyl}-2-oxo-oxazolidin-3-yl)-4H-pyrido[3,2-b][1,4]oxazin-3-one] | 0.5 (≈ 1.09 µM) | 16 (≈ 34.7 µM) | ≤ 0.063 | 1 (≈ 2.17 µM) | 1 (≈ 2.17 µM) | – | – | – | – | –
6-((R)-5-{2-[3-(6-methoxy-pyridin-2-yl)-benzylamino]-ethyl}-2-oxo-oxazolidin-3-yl)-4H-pyrido[3,2-b][1,4]oxazin-3-one [Example 31] | – | – | – | – | – | 0.5 | 2 | ≦0.016 mg/L | 0.25 | 0.25
COc1cccc(-c2cnnc(CNCC[C@H]3CN(c4ccc5c(n4)NC(=O)CO5)C(=O)O3)c2)c1 [Example 103, 6-[(S)-5-(2-{[5-(3-methoxy-phenyl)-pyridazin-3-ylmethyl]-amino}-ethyl)-2-oxo-oxazolidin-3-yl]-4H-pyrido[3,2-b][1,4]oxazin-3-one] | 0.5 (≈ 1.05 µM) | 2 (≈ 4.2 µM) | 0.063 (≈ 0.132 µM) | 1 (≈ 2.1 µM) | 0.25 (≈ 0.525 µM) | – | – | – | – | –
COc1cccc(-c2ccnc(CNCC[C@@H]3CN(c4ccc5c(c4)NC(=O)CS5)C(=O)O3)c2)c1 [Example 21, 6-[(R)-5-(2-{[4-(3-methoxy-phenyl)-pyridin-2-ylmethyl]-amino}-ethyl)-2-oxo-oxazolidin-3-yl]-4H-benzo[1,4]thiazin-3-one] | 0.25 (≈ 0.51 µM) | 1 (≈ 2.04 µM) | 0.031 (≈ 0.0632 µM) | 0.125 (≈ 0.255 µM) | 0.125 (≈ 0.255 µM) | – | – | – | – | –
CNC(=O)COc1cccc(-c2cccc(CNCC[C@H]3CN(c4ccc5c(n4)NC(=O)CO5)C(=O)O3)c2)c1 [Example 78, N-methyl-2-[3′-({2-[(S)-2-oxo-3-(3-oxo-3,4-dihydro-2H-pyrido[3,2-b][1,4]oxazin-6-yl)-oxazolidin-5-yl]-ethylamino}-methyl)-biphenyl-3-yloxy]-acetamide] | 1 (≈ 1.88 µM) | 8 (≈ 15 µM) | 0.031 (≈ 0.0583 µM) | 1 (≈ 1.88 µM) | 0.5 (≈ 0.941 µM) | – | – | – | – | –
O=C1COc2ccc(N3C[C@H](CCNCc4cccc(-c5cccc(N6CCC(O)C6)n5)c4)OC3=O)nc2N1 (mixture of isomers) [Example 57, 6-[(S)-5-(2-{3-[6-((RS)-3-hydroxy-pyrrolidin-1-yl)-pyridin-2-yl]-benzylamino}-ethyl)-2-oxo-oxazolidin-3-yl]-4H-pyrido[3,2-b][1,4]oxazin-3-one] | 2 | 8 | 0.25 | 1 | 2 | – | – | – | – | –
